Measurements published in ChEMBL document CHEMBL1128541 (J Med Chem, 1995).

What was measured:
[1] = molecular target: cGMP-specific 3',5'-cyclic phosphodiesterase (Homo sapiens, UniProt O76074); assay: Inhibitory activity against phosphodiesterase 5 from human platelets
Phosphodiesterase 3 = Phosphodiesterase 3 (Homo sapiens, UniProt Q14432+Q13370); assay: Inhibition of human platelet Phosphodiesterase 3
[2] = molecular target: T1, cGMP-dependent 3',5'-cyclic phosphodiesterase (Rattus norvegicus, UniProt Q01062); assay: Inhibition of rat brain Phosphodiesterase 2
T1 sequence (Q01062 whole entry): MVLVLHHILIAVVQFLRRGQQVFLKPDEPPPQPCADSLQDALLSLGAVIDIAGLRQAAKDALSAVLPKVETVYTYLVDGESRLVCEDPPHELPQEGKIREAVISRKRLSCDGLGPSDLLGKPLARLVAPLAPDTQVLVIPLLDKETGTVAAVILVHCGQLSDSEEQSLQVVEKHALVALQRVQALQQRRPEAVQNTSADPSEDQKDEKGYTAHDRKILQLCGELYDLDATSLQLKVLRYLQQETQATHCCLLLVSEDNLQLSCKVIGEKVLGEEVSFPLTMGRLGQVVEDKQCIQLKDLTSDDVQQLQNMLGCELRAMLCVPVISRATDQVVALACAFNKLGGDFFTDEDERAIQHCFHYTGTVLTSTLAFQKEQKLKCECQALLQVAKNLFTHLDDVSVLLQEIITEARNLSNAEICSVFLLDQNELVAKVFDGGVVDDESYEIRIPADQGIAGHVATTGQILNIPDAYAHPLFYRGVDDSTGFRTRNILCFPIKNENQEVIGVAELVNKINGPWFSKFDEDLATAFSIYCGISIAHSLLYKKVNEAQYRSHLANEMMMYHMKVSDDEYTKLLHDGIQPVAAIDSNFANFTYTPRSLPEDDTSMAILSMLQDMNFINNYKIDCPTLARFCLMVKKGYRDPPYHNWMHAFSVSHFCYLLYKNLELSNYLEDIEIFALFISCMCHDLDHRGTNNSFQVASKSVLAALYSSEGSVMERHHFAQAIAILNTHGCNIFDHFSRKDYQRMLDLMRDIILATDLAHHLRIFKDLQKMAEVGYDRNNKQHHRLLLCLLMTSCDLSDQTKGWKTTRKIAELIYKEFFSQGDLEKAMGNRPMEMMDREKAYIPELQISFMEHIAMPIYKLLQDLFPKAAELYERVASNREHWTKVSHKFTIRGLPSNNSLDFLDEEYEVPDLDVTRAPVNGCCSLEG

Phosphodiesterase 1 = Phosphodiesterase 1 (Bos taurus, UniProt Q01061+P14100); assay: Inhibition of bovine aorta Phosphodiesterase 1; type: protein assay
Phosphodiesterase 4 = Phosphodiesterase 4 (Rattus norvegicus, UniProt P14270+P14646+P14644+P54748); assay: Inhibition of rat kidney Phosphodiesterase 4; type: protein assay
Cyclooxygenase = Cyclooxygenase (Homo sapiens, UniProt P35354+P23219); assay: Inhibitory activity against Prostaglandin G/H synthase; type: protein assay
Rattus norvegicus [3] = species: Rattus norvegicus; assay: Ex vivo inhibition of Thromboxane B2 production in A-23,187-Induced Rat Whole Blood; type: functional
Rattus norvegicus [4] = species: Rattus norvegicus; assay: In vitro inhibition of Thromboxane B2 production in A-23,187-Induced Rat Whole Blood; type: functional
Thromboxane-A synthase = molecular target: T2, Thromboxane-A synthase (Homo sapiens, UniProt P24557); assay: In vitro inhibition of Thromboxane A2 synthase in human platelet
T2 sequence (P24557 whole entry): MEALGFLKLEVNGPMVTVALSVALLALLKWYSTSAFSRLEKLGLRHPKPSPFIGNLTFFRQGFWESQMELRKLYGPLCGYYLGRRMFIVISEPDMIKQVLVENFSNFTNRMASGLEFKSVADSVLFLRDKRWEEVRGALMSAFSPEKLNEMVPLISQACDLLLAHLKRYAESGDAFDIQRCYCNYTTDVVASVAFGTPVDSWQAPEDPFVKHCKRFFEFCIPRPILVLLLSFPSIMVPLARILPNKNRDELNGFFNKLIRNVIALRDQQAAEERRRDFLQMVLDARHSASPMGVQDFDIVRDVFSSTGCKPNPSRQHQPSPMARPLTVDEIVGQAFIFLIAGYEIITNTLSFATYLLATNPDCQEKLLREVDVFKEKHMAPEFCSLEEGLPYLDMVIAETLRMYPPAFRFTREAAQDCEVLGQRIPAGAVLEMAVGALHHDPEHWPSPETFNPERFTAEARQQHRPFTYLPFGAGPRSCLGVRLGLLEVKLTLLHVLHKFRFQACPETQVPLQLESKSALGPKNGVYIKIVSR

Homo sapiens = species: Homo sapiens; assay: In vitro inhibition of Thromboxane A2 synthesis in human platelet; type: functional

| SMILES | IC50 [1] | also measured |
| --- | --- | --- |
| COC(=O)c1cccc(Nc2nc(-c3ccccc3)nc3ccccc23)c1 | 190 nM |  |
| c1ccc(CNc2nc(-c3cccs3)nc3ccccc23)cc1 | 720 nM | IC50 (Phosphodiesterase 3): > 100000 nM; IC50 [2]: 21000 nM; IC50 (Phosphodiesterase 1): 13000 nM; IC50 (Phosphodiesterase 4): 7600 nM |
| c1ccc(CCNc2nc(-c3ccccc3)nc3ccccc23)cc1 | 1900 nM |  |
| c1csc(CNc2nc(-n3ccnc3)nc3ccccc23)c1 | 210 nM |  |
| Clc1nc(NCc2ccccc2)c2ccccc2n1 | 4600 nM |  |
| c1ccc(CNc2nc(-c3ccco3)nc3ccccc23)cc1 | 2500 nM |  |
| c1ccc(Nc2nc(-c3ccco3)nc3ccccc23)cc1 | 2300 nM |  |
| c1ccc(Nc2nc(-c3cccs3)nc3ccccc23)cc1 | 2400 nM |  |
| c1ccc(CNc2nc(-c3ccncc3)nc3ccccc23)cc1 | 310 nM | IC50 (Phosphodiesterase 3): > 100000 nM; IC50 (Cyclooxygenase): 14000 nM; IC50 [2]: 17000 nM; IC50 (Phosphodiesterase 1): 7000 nM; IC50 (Phosphodiesterase 4): 7500 nM; ED50 (Rattus norvegicus [3]): 11 mg/kg; IC50 (Rattus norvegicus [4]): 1800 nM; IC50 (Thromboxane-A synthase): 830 nM |
| Clc1ccc(Nc2nc(-c3ccccc3)nc3ccccc23)cc1 | 2150 nM |  |
| CN1CCN(c2nc(NCc3ccccc3)c3ccccc3n2)CC1 | 22000 nM |  |
| Clc1ccccc1Nc1nc(-c2ccccc2)nc2ccccc12 | 5500 nM |  |
| Clc1cccc(CNc2nc(-c3ccccc3)nc3ccccc23)c1 | 800 nM |  |
| Clc1ccc(CNc2nc(-c3ccccc3)nc3ccccc23)cc1 | 740 nM |  |
| O=[N+]([O-])c1cccc(Nc2nc(-c3ccccc3)nc3ccccc23)c1 | 420 nM |  |
| c1ccc(CNc2nc(-n3ccnc3)nc3ccccc23)cc1 | 260 nM | IC50 (Phosphodiesterase 3): 50000 nM; IC50 (Cyclooxygenase): 51000 nM; IC50 [2]: 25000 nM; IC50 (Phosphodiesterase 1): 14000 nM; IC50 (Phosphodiesterase 4): 3100 nM; ED50 (Rattus norvegicus [3]): 5.7 mg/kg; IC50 (Rattus norvegicus [4]): 1100 nM; IC50 (Thromboxane-A synthase): 220 nM |
| CCOC(=O)CCCNc1nc(-c2ccccc2)nc2ccccc12 | 4300 nM |  |
| c1ccc(-c2nc(NCC3CCCO3)c3ccccc3n2)cc1 (stereo not given) | 8800 nM |  |
| CN(Cc1ccccc1)c1nc(-c2ccccc2)nc2ccccc12 | 14000 nM |  |
| c1ccc(COc2nc(-c3ccccc3)nc3ccccc23)cc1 | 18500 nM |  |

| SMILES | IC50 [1] | also measured |
| --- | --- | --- |
| c1ccc(-c2nc(NC3CCCC3)c3ccccc3n2)cc1 | 2400 nM |  |
| c1ccc(CNc2nc(-c3cccnc3)nc3ccccc23)cc1 | 450 nM | IC50 (Phosphodiesterase 3): > 100000 nM; IC50 (Cyclooxygenase): 50000 nM; IC50 [2]: 19000 nM; IC50 (Phosphodiesterase 1): 21000 nM; IC50 (Phosphodiesterase 4): 9000 nM; ED50 (Rattus norvegicus [3]): > 30 mg/kg; IC50 (Rattus norvegicus [4]): > 10000 nM; IC50 (Thromboxane-A synthase): 5800 nM |
| COC(=O)c1ccc(Nc2nc(-c3ccccc3)nc3ccccc23)cc1 | 860 nM |  |
| c1ccc(CNc2nc(C3CCCCC3)nc3ccccc23)cc1 | 11000 nM |  |
| OCCCCCNc1nc(-c2ccccc2)nc2ccccc12 | 15000 nM |  |
| c1ccc(-c2nc(NCc3ccco3)c3ccccc3n2)cc1 | 4700 nM |  |
| C(=C\c1nc(NCc2ccccc2)c2ccccc2n1)/c1ccccc1 | 1300 nM |  |
| Clc1ccccc1CNc1nc(-c2ccccc2)nc2ccccc12 | 800 nM |  |
| c1ccc(-c2nc(NCc3cccnc3)c3ccccc3n2)cc1 | 8600 nM |  |
| Cc1ccc2nc(-c3cccnc3)nc(NCc3ccccc3)c2c1 | 105 nM |  |
| Cl.Cl.Clc1ccc2nc(-n3ccnc3)nc(NCc3ccccc3)c2c1 |  | IC50 (Phosphodiesterase 3): > 3000 nM; IC50 [2]: > 3000 nM; IC50 (Phosphodiesterase 1): > 3000 nM; IC50 (Phosphodiesterase 4): > 3000 nM |
| c1coc(CNc2nc(-n3ccnc3)nc3ccccc23)c1 | 630 nM |  |
| c1cncc(-c2nc(NCC3CC3)c3ccccc3n2)c1 | 4400 nM |  |
| COc1cccc(Nc2nc(-c3ccccc3)nc3ccccc23)c1 | 760 nM |  |
| c1cncc(-c2nc(NCc3cccs3)c3ccccc3n2)c1 | 360 nM |  |
| CN(c1ccccc1)c1nc(-c2ccccc2)nc2ccccc12 | 20000 nM |  |
| COc1ccc2nc(-n3ccnc3)nc(NCc3ccco3)c2c1 | 72 nM |  |
| Cl.Cl.O=[N+]([O-])c1ccc2nc(-c3cccnc3)nc(NCc3ccccc3)c2c1 | 10 nM | IC50 (Phosphodiesterase 3): > 3000 nM; IC50 [2]: > 3000 nM; IC50 (Phosphodiesterase 1): > 3000 nM; IC50 (Phosphodiesterase 4): > 3000 nM |
| Cl.Cl.Clc1ccc2nc(-c3cccnc3)nc(NCc3ccccc3)c2c1 | 26 nM | IC50 (Phosphodiesterase 3): > 50000 nM; IC50 [2]: > 50000 nM; IC50 (Phosphodiesterase 1): > 50000 nM; IC50 (Phosphodiesterase 4): > 50000 nM |
| c1ccc(CCNc2nc(-c3cccnc3)nc3ccccc23)cc1 | 540 nM |  |

| SMILES | IC50 [1] | also measured |
| --- | --- | --- |
| Brc1ccc2nc(-n3ccnc3)nc(NCc3ccccc3)c2c1 | 2.3 nM |  |
| c1ccc(-c2nc(NCc3ccccn3)c3ccccc3n2)cc1 | 11000 nM |  |
| c1cncc(CNc2nc(-c3cccnc3)nc3ccccc23)c1 | 2800 nM |  |
| Fc1ccc2nc(-c3cccnc3)nc(NCc3ccccc3)c2c1 | 165 nM |  |
| c1cncc(-c2nc(NCC3CCCO3)c3ccccc3n2)c1 (stereo not given) | 5000 nM |  |
| c1ccc(-c2nc(Nc3cccnc3)c3ccccc3n2)cc1 | 13000 nM |  |
| Clc1ccc2nc(-c3cccnc3)nc(NCc3ccco3)c2c1 | 120 nM |  |
| Clc1cccc(Nc2nc(-c3ccccc3)nc3ccccc23)c1 | 1000 nM |  |
| CS(=O)(=O)c1ccc2nc(-n3ccnc3)nc(NCc3ccccc3)c2c1 | 110 nM |  |
| c1ccc2c(NCC3CCCCC3)nc(-n3ccnc3)nc2c1 | 230 nM |  |
| c1ccc(CCNc2nc(-n3ccnc3)nc3ccccc23)cc1 | 860 nM |  |
| Fc1ccc2c(NCc3ccccc3)nc(-c3cccnc3)nc2c1 | 480 nM |  |
| CSc1ccc2nc(-n3ccnc3)nc(NCc3ccccc3)c2c1 | 14 nM |  |
| COc1ccc2nc(-n3ccnc3)nc(NCc3ccccc3)c2c1.Cl.Cl | 16 nM | IC50 (Phosphodiesterase 3): 2000 nM; IC50 [2]: > 3000 nM; IC50 (Phosphodiesterase 1): 2800 nM; IC50 (Phosphodiesterase 4): 3300 nM; ED50 (Rattus norvegicus [3]): 2.6 mg/kg; IC50 (Rattus norvegicus [4]): 830 nM; IC50 (Thromboxane-A synthase): 2500 nM |
| O=[N+]([O-])c1ccc2nc(-n3ccnc3)nc(NCc3ccccc3)c2c1 | 2.6 nM |  |
| c1ccc(CNc2nc(-c3ccccc3)nc3ccccc23)cc1 | 320 nM | IC50 (Phosphodiesterase 3): > 100000 nM; IC50 [2]: 24000 nM; IC50 (Phosphodiesterase 1): 22500 nM; IC50 (Phosphodiesterase 4): 8200 nM |
| O=C(O)/C=C/c1ccc(Cn2ccnc2)cc1 [OZAGREL] |  | IC50 (Homo sapiens): 3300 nM |
| CCCOc1ccccc1-c1nc2[nH]nnc2c(=O)[nH]1 [ZAPRINAST] |  | IC50 (Phosphodiesterase 3): 660000 nM; IC50 [2]: 100000 nM; IC50 (Phosphodiesterase 1): 68000 nM |
